Entries after “also recorded” stand apart in the source; their conditions may differ.
Legend:
[1] = test system: mice in which an autistic phenotype was induced by valproic acid (VPA); assay: Thermal Nociception test (hot plate) in VPA mice; assay type: in vivo, C57/BL6 mice; conditions: melatonin at 1 mg/kg per os daily for 14 days, the worsening is significant, FIG. 6
Experimental: (§1) To evaluate the synergy of a combination PEA-um and melatonin, experimental tests were carried out by oral administration (gastric tube) of a mixture of um-PEA and melatonin (approximately 10:1 ratio) at a dose of 10 mg/kg for two weeks in mice in which an autistic phenotype was induced by a single injection of valproic acid in the form of sodium valproate (VPA).
(§2) Healthy male C57/BL6 mice fed ad libitum and housed in cages with controlled sleep/wake cycles were used in the first experimentation. […]
(§3) The animals underwent the following behavioral tests: • The social interaction test, also known as a 3-chamber social test (FIGS. 2A, 2B and FIGS. 15A, 15B) to evaluate i) the interaction time of the animals with an unknown mouse and ii) the sociability index (ratio between the time spent by the mouse exploring the area without and with the new companion). […] In this phase of the test, parameters such as the time spent by the animal exploring i) the chambers and ii) the unfamiliar mouse were detected. • The Novel Object Recognition Test or NOR test (FIGS. 3A, 3B) to examine cognition and recognition memory by calculating the time spent by the animal exploring new objects with respect to familiar ones. […]

[2] = test system: mice in which an autistic phenotype was induced by valproic acid (VPA); assay: VPA injection model of autism: overall activity in the study; assay type: in vivo, C57/BL6 mice
Experimental: as §1, §2, §3

BTBR T+tf/J (BTBR) mice [3] = assay: Social interaction test and 3-chamber social interaction test in BTBR mice; assay type: in vivo; conditions: melatonin 0.1 mg/kg orally for 10 days
Experimental: (§4) Furthermore, experimental tests were carried out to determine the synergy of the PEA-Melatonin-DHA combination administered orally to genetically modified BTBR T+tf/J (BTBR) mice, an animal model of neurobehavioral disorders of the ASD type.
(§5) To determine the synergy of a PEA-um, melatonin and DHA combination, a second experimentation was performed, using a different animal model useful for the study of neurobehavioral disorders, and more precisely BTBR mice. […]
(§6) The animals underwent the following behavioral tests: • The social interaction test, also known as a 3-chamber social test (FIGS. 2A, 2B and FIGS. 15A, 15B) to evaluate i) the interaction time of the animals with an unknown mouse and ii) the sociability index (ratio between the time spent by the mouse exploring the area without and with the new companion). […] In this phase of the test, parameters such as the time spent by the animal exploring i) the chambers and ii) the unfamiliar mouse were detected. • The Novel Object Recognition Test or NOR test (FIGS. 3A, 3B) to examine cognition and recognition memory by calculating the time spent by the animal exploring new objects with respect to familiar ones. […] The exploration time was counted from the moment the mice directly looked at and smelled the object at a distance of less than 2 cm. […]

BTBR T+tf/J (BTBR) mice [4] = assay: Marble Burying test in BTBR mice; assay type: in vivo; conditions: melatonin 0.1 mg/kg orally for 10 days, FIG. 15C
Experimental: as §4, §5, §6

BTBR T+tf/J (BTBR) mice [5] = assay: Self Grooming test in BTBR mice; assay type: in vivo; conditions: melatonin 0.1 mg/kg orally for 10 days, FIG. 15D
Experimental: as §4, §5, §6

[6] = test system: mice with a simil-autistic phenotype; conditions: cited from earlier work
autistic children = conditions: um-PEA 600 mg/day, 3-month treatment; cited from earlier work

Structure (SMILES)	VPA-induced pain insensitivity (hot plate) [1]	activity in the assessments of the VPA study (social interaction, sociability index, NOR, stereotypies, EPM) ([2]; melatonin at 1 mg/kg per os daily for 14 days, 1 mg/kg)	activity in the present study (VPA model) ([2]; melatonin at a dose of 10 mg/kg per os daily for 14 days)	social interaction behavioral test (BTBR T+tf/J (BTBR) mice [3]; FIG. 15A)	3-chamber social interaction test: side of the area where time is spent (BTBR T+tf/J (BTBR) mice [3]; FIG. 15B)	stereotyped repetitive behaviors (Marble Burying) (BTBR T+tf/J (BTBR) mice [4])	stereotyped repetitive behaviors (Self Grooming) (BTBR T+tf/J (BTBR) mice [5])	altered behavioral status [6]	expression of the pro-inflammatory hippocampal and serum cytokines IL-6, IL-1β and TNF-α [6]	adverse effects (autistic children)	aggressiveness, cognitive and behavioral skills, and communication (autistic children)
COc1ccc2[nH]cc(CCNC(C)=O)c2c1 [melatonin, N-acetyl-5-methoxy tryptamine]	worsened	inactive; also recorded: never shown to be active	active	no improvement	continuing to spend their time in the empty side	no improvement	no improvement				
CCCCCCCCCCCCCCCC(=O)NCCO [um-PEA, Ultra-micronized palmitoylethanolamide]								modulating	reducing	without adverse effects	improves

Reference: patent publication US20230381121A1, “N-PALMITOYLETHANOLAMIDE AND MELATONIN FOR USE IN THE TREATMENT OF AUTISM SPECTRUM DISORDER AND OTHER NEUROBEHAVIORAL DISORDERS SIMILARLY ACCOMPANIED BY RESTLESSNESS, IRRITABILITY, SLEEP DISORDERS, AND POTENTIALLY STEREOTYPIES” (priority 2022, published 2023)
